Assay results taken from patent publication US20100278776A1, “PHARMACEUTICAL COMPOSITIONS FOR MODULATING A KINASE CASCADE AND METHODS OF USE THEREOF” (Kinex Pharmaceuticals, LLC, priority 2007, published 2010).
Where a name gives a salt, the structure may show the parent alone. Read-outs that look alike come from different tables or passages of the source. Each block holds one molecule with its values, some of them ahead of it.

How the values were obtained:
[1] = tested on: HT29 (human colon cancer) xenograft; assay: Oral potency in staged HT29 mouse xenografts; conditions: 25 mg/kg bid; at day 5 dose lowered to 15 mg/kg bid
[2] = tested on: H460 cells; assay: Dasatinib-resistant cell growth inhibition (MTT), H460; assay type: cell-based; conditions: Homo sapiens, NCI-H460, 8.0×10^3 cells/well, 1.5% FBS, 78 Hr
Procedure: The OD570 was measured using microplate reader. Growth inhibition curves and EC50/IC50 were determined using GraphPad Prism 4 statistical software. Data was normalized to represent percent of maximum response.

[3] = tested on: Jurkat cells; assay: Leukemia cell growth inhibition, Jurkat; assay type: cell-based; conditions: Homo sapiens; Jurkat (Adult T cell leukemia)
[4] = tested on: L3.6pl cell line; assay: Cell growth inhibition (BrdU assay), L3.6pl; assay type: cell-based, human
Description: L3.6pl cells are previously described in Trevino et al. Am J. Pathol.

[5] = tested on: SKOV-3 cells; assay: Cell growth inhibition (BrdU assay), SKOV-3; conditions: SKOV-3 (Ovarian); Drug 1 = taxol
Procedure: (§6) Cell lines being evaluated are: SKOV-2, K562, HT-29, A549, and MDA231. […] Except MDA231, this line is grown at 37° C. and 0% CO2.
(§7) Except MDA231, this line is grown at 37° C. and 0% CO2. Brdu assay was performed at T=0 and T=72.
(§8) Growth Inhibition. The BrdU data was used to determine the % growth inhibition for each sample concentration using the formula:
(§9) where T0=Fluorescence of cells at time 0; T1=Fluorescence of treated cells at x hours; Con=Fluorescence of control cells at x hours. T1 values T0 values were designated as T, cytotoxicity. The GI50 was estimated using XLFit excluding T1 values T0 (cytotoxicity).

[6] = tested on: A549 cells; assay: Cell growth inhibition (BrdU assay), A549; assay type: cell-based, human; conditions: A549 (Lung); Drug 1 = Tarceva
Procedure: as §6, §7, §8, §9

[7] = target: FGFR2(h) (Homo sapiens, UniProt P21802); assay: Isolated kinase activity, FGFR2; assay type: biochemical; conditions: @ 10 μM
[8] = target: Abl(h) (Homo sapiens, UniProt P00519); assay: Isolated kinase activity, Abl; assay type: biochemical; conditions: @ 10 μM
[9] = target: isolated Src (Homo sapiens, UniProt P12931); assay: Titration against isolated Src; assay type: biochemical
[10] = tested on: Caspase-3 cleavage; assay: Induction of apoptosis via Caspase 3 cleavage; assay type: cell-based; conditions: HT29 and c-Src527F/NIH-3T3 cells
Procedure: (§1) AZ28 serves as a positive comparator to show what a validated Src inhibitor should do in these assays. After treatment with compound, cells were lysed, subjected to PAGE and probed with a battery of antibodies. […] In addition, off-target protein phosphorylation was also investigated. Further, induction of apoptosis was evaluated via Caspase 3 cleavage. Multiple doses of each compound were tested because the trends in response to increasing drug concentration are the most reliable indicator of activity.
Cleavage of Caspase-3 is a good measure of induction of apoptosis.

[11] = target: ZAP-70(h) (Homo sapiens, UniProt P43403); assay: Isolated kinase activity, ZAP-70; assay type: biochemical; conditions: @ 10 μM
[12] = target: Yes(h) (Homo sapiens, UniProt P07947); assay: Isolated kinase activity, Yes; assay type: biochemical; conditions: @ 10 μM
[13] = target: IGF-1R(h) (Homo sapiens, UniProt P08069); assay: Isolated kinase activity, IGF-1R; assay type: biochemical; conditions: @ 10 μM
[14] = tested on: PI3 kinase; assay: Isolated kinase activity, PI3 kinase; assay type: biochemical; conditions: @ 10 μM
[15] = target: MAPK2(h) (Homo sapiens, UniProt P28482); assay: Isolated kinase activity, MAPK2; assay type: biochemical; conditions: @ 10 μM
[16] = tested on: HT29 cell line; assay: Cell growth inhibition (BrdU assay), HT29; assay type: cell-based, human
Procedure: The HT29 cell line is a NCI standard human colon carcinoma cell line.
(§2) In the BrdU Assay for cell growth inhibition, quantitation of cell proliferation was based on the measurement of BrdU incorporation during DNA synthesis. The Cell Proliferation ELISA BrdU assay kit (colorimetric) was obtained from Roche Applied Science and performed as per vendor instructions.
(§3) The growth inhibition (GI) is determined from the formula GI=(T0−Tn×100/T0−CONn) where T0 is the BrdU growth of untreated cells at time “0”, Tn is the BrdU growth of treated cells at day “n” and CONn is the control BrdU growth of control cells at day “n”. The GI50 was extrapolated and the data plotted using XL-Fit 4.0 software.
(§4) For 96 well culture plate experiments, c-Src 3T3 medium was supplemented with 10 mM HEPES buffer. HT-29 cells were seeded in standard tissue culture 96-well plates and c-Src 3T3 cells were seeded in 96-well plates coated with Poly-D-lysine (BIOCOAT™). To increase CO2 diffusion, c-Src 3T3 96-well plates were incubated with their lids raised by ˜2 mm using sterile rubber caps.
(§5) Samples were reconstituted in DMSO at 20 mM and intermediate dilutions made using DMEM containing 10% FBS. […] Plates were assayed for BrdU and the data analyzed as above for GI50.

[17] = target: isolated FAK (Homo sapiens, UniProt Q05397); assay: Titration against isolated FAK; assay type: biochemical
[18] = target: Lyn(h) (Homo sapiens, UniProt P07948); assay: Isolated kinase activity, Lyn; assay type: biochemical; conditions: @ 10 μM
[19] = tested on: c-Src527F/NIH3T3 cells; assay: Cell growth inhibition (BrdU assay), c-Src 3T3; assay type: cell-based; conditions: Mus musculus
Procedure: The cells were routinely cultured in DMEM supplemented with Fetal Bovine Serum (2.0% v/V), L-glutamine (2 mM) and Sodium Pyruvate (1 mM).
as §2, §3, §4, §5

[20] = tested on: FAK Y397; assay: FAK autophosphorylation in whole cells; assay type: cell-based; conditions: c-Src527F/NIH3T3 cells
Procedure: as §1
FAK Y397 is mainly a FAK autophosphorylation site and only a poor Src transphorylation site. AZ28 is not a potent FAK inhibitor (see isolated enzyme data in Example 8).

[21] = target: Pyk2(h) (Homo sapiens, UniProt Q14289); assay: Isolated kinase activity, Pyk2; assay type: biochemical; conditions: @ 10 μM
[22] = tested on: total phosphotyrosine; assay: Total phosphotyrosine levels in cells; assay type: cell-based; conditions: HT29 and c-Src527F/NIH-3T3 cells
Procedure: as §1

[23] = target: PDGFRβ(h) (Homo sapiens, UniProt P09619); assay: Isolated kinase activity, PDGFRβ; assay type: biochemical; conditions: @ 10 μM
[24] = target: PKCα(h) (Homo sapiens, UniProt P17252); assay: Isolated kinase activity, PKCα; assay type: biochemical; conditions: @ 10 μM
[25] = target: T1, PDGF receptor tyrosine kinase Y572/574 (Mus musculus, UniProt P26618); assay: PDGF receptor autophosphorylation in whole cells; assay type: cell-based
T1 construct: endogenous in cells; host or cells: c-Src527F/NIH-3T3
Procedure: as §1
This is thought not to be a direct Src substrate in cells.

[26] = target: IR(h) (Homo sapiens, UniProt P06213); assay: Isolated kinase activity, IR; assay type: biochemical; conditions: @ 10 μM
[27] = tested on: EGFR tyrosine kinase (EGF Y845); assay: EGFR tyrosine kinase autophosphorylation in whole cells; assay type: cell-based
Procedure: as §1
This site is not a direct Src phosphorylation site.

[28] = target: Lck(h) (Homo sapiens, UniProt P06239); assay: Isolated kinase activity, Lck; assay type: biochemical; conditions: @ 10 μM
[29] = target: T2, Src (Homo sapiens, UniProt P12931, Y530F); assay: Src kinase activity in whole cells (auto- and transphosphorylation, PAGE/antibodies); assay type: cell-based
T2 construct: expressed in transfected cells; host or cells: c-Src527F/NIH-3T3 (mouse fibroblasts transfected with human c-Src Y527F); part of the results come from HT-29 (endogenous human Src)
Procedure: as §1

[30] = target: EGFR(h) (Homo sapiens, UniProt P00533); assay: Isolated kinase activity, EGFR; assay type: biochemical; conditions: @ 10 μM
[31] = target: Fyn(h) (Homo sapiens, UniProt P06241); assay: Isolated kinase activity, Fyn; assay type: biochemical; conditions: @ 10 μM
[32] = tested on: HBV; assay: HBV primary assay (HepG2-2.2.15 antiviral assay); assay type: cell-based; conditions: Hepatitis B virus, Test Concentration 10 μM, read-out: Antiviral Activity Percent inhibition of cell control
Procedure: The HBV primary assay developed was conducted similarly to that described by Korba et al., (Antiviral Res. 15: 217-228 (1991) and Antiviral Res. 19: 55-70 (1992)) with the exception that viral DNA detection and quantification have been improved and simplified (Korba et al., Antiviral Res. 19: 55-70 (1992)).
The HepG2-2.2.15 is a stable cell line producing high levels of the wild-type aywl strain of HBV. Briefly, HepG2-2.2.15 cells were plated in 96-well plates. Only the interior wells were utilized to reduce “edge effects” observed during cell culture; the exterior wells are filled with complete medium to help minimize sample evaporation. […] Six days following the initial administration of the test compound, the cell culture supernatant was collected, treated with pronase and DNAse and then used in a real-time quantitative TaqMan PCR assay for direct measurement of HBV DNA copies using an ABI Prism 7900 sequence detection system (Applied Biosystems, Foster City, Calif.).
The antiviral activity of each test compound was calculated by comparing its HBV DNA copies against that of the untreated control cells (100%) to derive percent inhibition level. […] Cytotoxicity of the compound was determined by comparing its cell viability with that of the untreated cell control to derive percentage of the cell control.

Sequence of isolated FAK (Q05397 whole entry): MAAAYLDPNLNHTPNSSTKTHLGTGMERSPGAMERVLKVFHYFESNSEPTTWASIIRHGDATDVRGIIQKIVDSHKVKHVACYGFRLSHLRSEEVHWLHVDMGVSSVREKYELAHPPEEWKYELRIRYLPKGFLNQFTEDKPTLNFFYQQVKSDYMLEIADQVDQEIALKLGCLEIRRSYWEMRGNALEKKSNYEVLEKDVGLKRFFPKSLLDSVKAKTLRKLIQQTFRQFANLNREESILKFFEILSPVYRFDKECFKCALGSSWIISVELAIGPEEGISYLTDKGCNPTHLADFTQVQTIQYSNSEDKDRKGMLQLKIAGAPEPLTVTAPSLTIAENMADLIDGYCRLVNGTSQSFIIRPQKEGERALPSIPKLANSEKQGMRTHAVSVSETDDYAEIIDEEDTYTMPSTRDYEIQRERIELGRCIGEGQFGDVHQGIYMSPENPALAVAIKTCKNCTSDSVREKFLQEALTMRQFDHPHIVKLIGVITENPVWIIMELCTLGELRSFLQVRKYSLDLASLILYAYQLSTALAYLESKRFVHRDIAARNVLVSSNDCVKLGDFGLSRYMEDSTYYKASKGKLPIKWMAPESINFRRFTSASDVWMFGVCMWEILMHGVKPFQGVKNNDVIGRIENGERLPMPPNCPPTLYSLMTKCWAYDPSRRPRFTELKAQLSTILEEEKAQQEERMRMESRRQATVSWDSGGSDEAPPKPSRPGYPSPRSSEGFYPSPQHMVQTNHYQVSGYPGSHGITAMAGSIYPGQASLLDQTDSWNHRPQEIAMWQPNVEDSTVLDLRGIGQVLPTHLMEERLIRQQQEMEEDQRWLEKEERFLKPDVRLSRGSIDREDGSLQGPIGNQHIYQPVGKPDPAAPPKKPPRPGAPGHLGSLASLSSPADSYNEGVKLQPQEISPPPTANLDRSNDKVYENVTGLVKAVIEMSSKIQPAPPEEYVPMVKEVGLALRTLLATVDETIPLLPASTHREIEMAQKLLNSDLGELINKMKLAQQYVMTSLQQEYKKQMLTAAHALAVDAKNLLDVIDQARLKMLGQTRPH
T1 sequence (P26618 25-1089): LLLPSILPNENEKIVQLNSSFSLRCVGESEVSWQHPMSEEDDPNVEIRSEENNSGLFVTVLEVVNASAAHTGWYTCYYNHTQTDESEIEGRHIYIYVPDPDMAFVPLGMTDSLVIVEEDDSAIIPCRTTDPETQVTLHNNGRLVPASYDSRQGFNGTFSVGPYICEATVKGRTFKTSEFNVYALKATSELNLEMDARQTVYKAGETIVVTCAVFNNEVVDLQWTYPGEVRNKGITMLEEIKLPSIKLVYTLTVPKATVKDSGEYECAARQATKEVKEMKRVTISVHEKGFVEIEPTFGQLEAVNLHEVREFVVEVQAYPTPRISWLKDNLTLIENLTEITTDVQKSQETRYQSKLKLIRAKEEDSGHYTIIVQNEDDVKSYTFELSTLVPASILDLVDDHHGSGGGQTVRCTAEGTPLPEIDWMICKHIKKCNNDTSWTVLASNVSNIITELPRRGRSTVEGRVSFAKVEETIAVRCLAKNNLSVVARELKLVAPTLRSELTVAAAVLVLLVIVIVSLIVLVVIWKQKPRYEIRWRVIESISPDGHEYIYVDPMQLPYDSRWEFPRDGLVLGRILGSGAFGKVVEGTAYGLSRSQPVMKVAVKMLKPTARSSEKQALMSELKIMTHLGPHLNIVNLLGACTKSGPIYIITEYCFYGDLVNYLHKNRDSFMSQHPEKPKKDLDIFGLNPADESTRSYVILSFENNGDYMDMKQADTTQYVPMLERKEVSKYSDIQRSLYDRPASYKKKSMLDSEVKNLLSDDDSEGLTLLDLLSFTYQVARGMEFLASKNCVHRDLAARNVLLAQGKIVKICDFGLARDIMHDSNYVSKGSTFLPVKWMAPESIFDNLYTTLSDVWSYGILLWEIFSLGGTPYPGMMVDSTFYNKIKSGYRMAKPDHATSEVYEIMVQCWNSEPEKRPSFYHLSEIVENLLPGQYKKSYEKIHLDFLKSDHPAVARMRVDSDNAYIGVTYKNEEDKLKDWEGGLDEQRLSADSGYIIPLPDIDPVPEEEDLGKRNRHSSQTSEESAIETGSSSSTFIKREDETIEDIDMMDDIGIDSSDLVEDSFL
Sequence of IGF-1R(h) (P08069 31-1367): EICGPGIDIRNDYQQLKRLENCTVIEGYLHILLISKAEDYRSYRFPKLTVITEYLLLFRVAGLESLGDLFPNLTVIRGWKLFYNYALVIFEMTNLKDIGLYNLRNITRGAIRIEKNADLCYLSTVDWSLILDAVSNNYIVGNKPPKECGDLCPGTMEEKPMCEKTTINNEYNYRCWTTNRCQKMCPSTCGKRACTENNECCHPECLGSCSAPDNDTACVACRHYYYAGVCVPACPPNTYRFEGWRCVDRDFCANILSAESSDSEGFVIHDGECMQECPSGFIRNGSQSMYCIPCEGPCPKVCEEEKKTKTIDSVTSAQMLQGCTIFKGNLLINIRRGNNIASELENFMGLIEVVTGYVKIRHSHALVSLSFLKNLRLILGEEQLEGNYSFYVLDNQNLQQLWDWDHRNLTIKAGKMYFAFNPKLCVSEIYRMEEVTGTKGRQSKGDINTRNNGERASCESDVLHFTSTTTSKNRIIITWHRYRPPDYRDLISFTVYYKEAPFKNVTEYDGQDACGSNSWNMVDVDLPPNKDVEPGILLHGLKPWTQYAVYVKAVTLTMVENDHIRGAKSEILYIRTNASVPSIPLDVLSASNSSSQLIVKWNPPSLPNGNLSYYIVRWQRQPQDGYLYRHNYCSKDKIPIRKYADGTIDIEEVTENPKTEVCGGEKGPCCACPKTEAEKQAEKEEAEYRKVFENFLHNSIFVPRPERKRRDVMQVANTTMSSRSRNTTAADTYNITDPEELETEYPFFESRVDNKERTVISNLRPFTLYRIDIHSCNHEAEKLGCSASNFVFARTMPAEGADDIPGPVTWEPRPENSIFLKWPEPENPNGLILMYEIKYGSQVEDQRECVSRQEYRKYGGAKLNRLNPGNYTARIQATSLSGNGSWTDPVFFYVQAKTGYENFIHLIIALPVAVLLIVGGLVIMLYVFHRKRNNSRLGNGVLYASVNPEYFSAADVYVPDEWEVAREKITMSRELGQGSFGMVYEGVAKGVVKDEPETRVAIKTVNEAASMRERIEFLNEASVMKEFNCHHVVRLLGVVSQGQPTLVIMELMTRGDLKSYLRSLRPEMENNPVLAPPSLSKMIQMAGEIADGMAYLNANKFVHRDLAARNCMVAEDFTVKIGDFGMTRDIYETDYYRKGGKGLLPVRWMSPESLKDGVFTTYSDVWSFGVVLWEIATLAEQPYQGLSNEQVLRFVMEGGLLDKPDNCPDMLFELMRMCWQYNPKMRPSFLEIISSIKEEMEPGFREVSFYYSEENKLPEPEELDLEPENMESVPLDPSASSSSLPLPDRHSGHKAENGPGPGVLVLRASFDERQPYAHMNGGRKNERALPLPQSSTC
Sequence of Pyk2(h) (Q14289 whole entry): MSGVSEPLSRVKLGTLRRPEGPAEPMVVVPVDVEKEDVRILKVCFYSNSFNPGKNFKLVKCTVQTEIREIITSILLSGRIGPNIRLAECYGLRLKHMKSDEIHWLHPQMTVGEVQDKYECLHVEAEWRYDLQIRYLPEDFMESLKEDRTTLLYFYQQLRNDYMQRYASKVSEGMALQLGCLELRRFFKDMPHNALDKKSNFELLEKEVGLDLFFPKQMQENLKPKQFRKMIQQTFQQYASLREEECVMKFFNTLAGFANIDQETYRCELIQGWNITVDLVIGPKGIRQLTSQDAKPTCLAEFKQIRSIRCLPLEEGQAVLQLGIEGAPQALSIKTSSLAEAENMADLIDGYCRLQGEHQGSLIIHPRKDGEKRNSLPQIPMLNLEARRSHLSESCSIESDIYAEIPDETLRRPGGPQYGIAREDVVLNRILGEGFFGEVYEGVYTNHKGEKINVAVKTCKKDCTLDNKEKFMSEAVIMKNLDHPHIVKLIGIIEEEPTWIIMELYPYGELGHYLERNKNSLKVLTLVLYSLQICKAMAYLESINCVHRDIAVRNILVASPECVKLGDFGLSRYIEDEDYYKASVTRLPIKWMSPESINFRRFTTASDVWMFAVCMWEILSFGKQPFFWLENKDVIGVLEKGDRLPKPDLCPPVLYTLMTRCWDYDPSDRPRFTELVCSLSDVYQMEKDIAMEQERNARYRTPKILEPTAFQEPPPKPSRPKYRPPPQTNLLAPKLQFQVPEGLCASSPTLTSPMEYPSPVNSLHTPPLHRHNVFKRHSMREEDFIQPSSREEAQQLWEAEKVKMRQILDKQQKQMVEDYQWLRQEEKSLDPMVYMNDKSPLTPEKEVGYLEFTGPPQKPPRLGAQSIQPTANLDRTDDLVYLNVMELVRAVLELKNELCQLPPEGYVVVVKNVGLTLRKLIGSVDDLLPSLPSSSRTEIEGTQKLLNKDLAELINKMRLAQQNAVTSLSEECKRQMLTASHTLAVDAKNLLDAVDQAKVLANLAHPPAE
Sequence of MAPK2(h) (P28482 whole entry): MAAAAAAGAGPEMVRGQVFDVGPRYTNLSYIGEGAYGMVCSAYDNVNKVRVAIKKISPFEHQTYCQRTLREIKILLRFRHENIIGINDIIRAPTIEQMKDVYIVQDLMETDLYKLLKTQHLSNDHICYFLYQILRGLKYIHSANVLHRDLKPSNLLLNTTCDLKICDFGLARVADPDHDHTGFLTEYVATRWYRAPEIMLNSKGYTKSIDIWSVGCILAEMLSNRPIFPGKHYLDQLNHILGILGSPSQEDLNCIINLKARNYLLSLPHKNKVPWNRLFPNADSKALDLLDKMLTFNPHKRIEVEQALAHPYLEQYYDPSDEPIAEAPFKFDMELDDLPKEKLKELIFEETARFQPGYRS

SMILES: Cc1nc(Nc2ncc(C(=O)Nc3c(C)cccc3Cl)s2)cc(N2CCN(CCO)CC2)n1 [Dasatinib]
body weight [1]: weight loss
IC50 [2]: 90 nM
GI50 [3]: 8 nM

SMILES: Nc1ccn([C@@H]2O[C@H](CO)[C@@H](O)C2(F)F)c(=O)n1 [Gemcitabine, gemcitabine]
GI50 ([4]; Homo sapiens, L3.6pl, BrdU, T=72, read-out: GI50, Single): 1.76 nM
Drug 1:compound (I) GI50 ratio ([4]; L3.6pl (Pancreas), Drug 1 = Gemcitabine): 1/13

Drug 1:compound (I) GI50 ratio [5]: 0.40
SMILES: CC(=O)O[C@H]1C(=O)[C@@]2(C)[C@H]([C@H](OC(=O)c3ccccc3)[C@]3(O)C[C@H](OC(=O)[C@H](O)[C@@H](NC(=O)c4ccccc4)c4ccccc4)C(C)=C1C3(C)C)[C@]1(OC(C)=O)CO[C@@H]1C[C@@H]2O [taxol]

Drug 1:compound (I) GI50 ratio [6]: 134
SMILES: C#Cc1cccc(Nc2ncnc3cc(OCCOC)c(OCCOC)cc23)c1 [Tarceva]

SMILES: COc1cc2c(Nc3c(Cl)ccc4c3OCO4)ncnc2cc1OCCCN1CCCCC1 [KX2-328]
percent activity of isolated kinase relative to control (untreated) [7]: 94%
percent activity of isolated kinase relative to control (untreated) [8]: 1%
IC50 [9]: 8 nM
fold less potent against cell growth than against isolated Src [9]: 10-100 ×
induction of apoptosis (Caspase-3 cleavage) [10]: not effective in inducing apoptosis
percent activity of isolated kinase relative to control (untreated) [11]: 97%
percent activity of isolated kinase relative to control (untreated) [12]: 1%
percent activity of isolated kinase relative to control (untreated) [13]: 110%
percent activity of isolated kinase relative to control (untreated) [14]: 99%
percent activity of isolated kinase relative to control (untreated) [15]: 105%
GI50 ([16]; Homo sapiens, HT-29, HT29 (Colon), read-out: GI50): 647 nM
GI50 ([16]; Homo sapiens, HT-29, HT29, read-out: GI50): 794 nM
GI50 ([16]; Homo sapiens, HT-29, NCI human colon cancer cell line HT29): 794 nM
activity at 0.05 µM ([16]; Homo sapiens, HT-29, 50 nM, read-out: HT-29 Growth, % of Control, Mean, n = 3): 73%
activity at 0.5 µM ([16]; Homo sapiens, HT-29, 500 nM, read-out: HT-29 Growth, % of Control, Mean, n = 3): 10%
activity at 5 µM ([16]; Homo sapiens, HT-29, 5 uM, read-out: HT-29 Growth, % of Control, Mean, n = 3): < 0%
IC50 [17]: > 500 nM
fold less potent against isolated FAK (than isolated Src) [17]: ≥ 100 ×
percent activity of isolated kinase relative to control (untreated) [18]: 0%
GI50 ([19]; NIH3T3, c-Src 3T3): 99 nM
GI50 ([19]; NIH3T3, c-Src527F/NIH3T3): 87 nM
GI50 ([19]; NIH3T3, c-Src/NIH-3T3 engineered cell line): 99 nM
activity at 0.1 µM ([19]; NIH3T3, 100 nM, read-out: c-Src 3T3 Growth, % of Control, Mean, n = 3): 13%
activity at 1 µM ([19]; NIH3T3, 1.0 uM, read-out: c-Src 3T3 Growth, % of Control, Mean, n = 3): < 0%
activity at 10 µM ([19]; NIH3T3, 10 uM, read-out: c-Src 3T3 Growth, % of Control, Mean, n = 3): < 0%
FAK autophosphorylation (Y397) [20]: some inhibition
percent activity of isolated kinase relative to control (untreated) [21]: 43%
total phosphotyrosine levels [22]: reduction in the total phosphotyrosine levels
percent activity of isolated kinase relative to control (untreated) [23]: 98%
percent activity of isolated kinase relative to control (untreated) [24]: 111%
PDGF receptor autophosphorylation (Y572/574) [25]: dose response reduction
percent activity of isolated kinase relative to control (untreated) [26]: 125%
EGFR tyrosine kinase autophosphorylation [27]: potently inhibits
percent activity of isolated kinase relative to control (untreated) [28]: 1%
phosphorylation of Paxillin Y-31 (Src transphosphorylation substrate) ([29]; c-Src527F/NIH-3T3 cells): inhibited Src trans-phosphorylation
phosphorylation of FAK Tyr 925 (Src transphosphorylation substrate) ([29]; whole cells): inhibited Src trans-phosphorylation
phosphorylation of Shc Y239/240 (Src transphosphorylation substrate) ([29]; whole cells): inhibited Src trans-phosphorylation
percent activity of isolated kinase relative to control (untreated) [30]: 3%
percent activity of isolated kinase relative to control (untreated) [31]: 2%

SMILES: O=C(Cc1ccc(-c2ccc(OCCN3CCOCC3)cc2)cn1)NCc1ccccc1 [Compound (I): 2HCl, 2-(5-(4-(2-morpholinoethoxy)phenyl)pyridin-2-yl)-N-benzylacetamide dihydrochloride salt]
inhibition at 10 µM [32]: 48.2%

SMILES: O=C1[O][Pt]2([NH][C@@H]3CCCC[C@H]3[NH]2)[O]C1=O [oxaliplatin]
Drug 1:compound (I) GI50 ratio ([16]; HT29 (Colon), Drug 1 = oxaliplatin): 59
